According to patent publication US20070093515A1, “Phosphodiesterase 10 inhibitors” (priority 2005, published 2007):

Target: T1, mPDE10A7 (Mus musculus, UniProt Q8CA95)
T1 sequence (Q8CA95 446-763 limits assumed): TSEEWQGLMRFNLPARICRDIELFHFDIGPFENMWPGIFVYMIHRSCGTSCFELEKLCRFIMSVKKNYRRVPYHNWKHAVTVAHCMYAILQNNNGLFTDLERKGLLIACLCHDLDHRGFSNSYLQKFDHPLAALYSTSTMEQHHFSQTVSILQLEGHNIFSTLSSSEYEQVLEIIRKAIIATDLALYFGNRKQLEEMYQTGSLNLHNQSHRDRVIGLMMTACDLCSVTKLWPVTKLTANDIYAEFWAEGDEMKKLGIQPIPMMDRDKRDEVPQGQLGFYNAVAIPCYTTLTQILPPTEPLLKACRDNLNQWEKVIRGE
Assay: mPDE10A7 enzyme inhibition (IMAP fluorescence polarization, fluorescein labeled cAMP or cGMP)
Assay type: biochemical
Description: mPDE10A7 Enzyme Activity and Inhibition
To analyze the enzyme activity, 5 μL of serial diluted mPDE10A7 containing lysate were incubated with equal volumes of diluted (100-fold) fluorescein labeled cAMP or cGMP for 30 minutes in MDC HE 96-well assay plates at room temperature. Both the enzyme and the substrates were diluted in the following assay buffer: Tris/HCl (pH 8.0) 50 mM, MgCl2 5 mM, 2-mercaptoethanol 4 mM, BSA 0.33 mg/mL. After incubation, the reaction was stopped by adding 20 μL of diluted (400-fold) binding reagents and was incubated for an hour at room temperature. The plates were counted in an Analyst GT (Molecular Devices) for fluorescence polarization. An IMAP Assay kit (Molecular Device) was used to assess enzyme properties of mmPDE10A7. Data were analyzed with SoftMax Pro.
To check the inhibition profile, 10 μL of serial diluted compounds were incubated with 30 μl of diluted PDE enzymes in a 96-well polystyrene assay plate for 30 minutes at room temperature. After incubation, 5 μL of the compound-enzyme mixture were aliquoted into a MDC HE black plate, mixed with 5 μl of 100-fold diluted fluorescein labeled substrates (cAMP or cGMP), and incubated for 30 minutes at room temperature. The reaction was stopped by adding 20 μL of diluted binding reagents and counted in an Analyst GT for fluorescence polarization. The data were analyzed with SoftMax Pro.

Work on `COCCOc1cccc2c1CCN(c1ncnc3cc(OC)c(OC)cc13)C2=O` [2-(6,7-dimethoxyquinazolin-4-yl)-5-(2-methoxyethoxy)-3,4-dihydroisoquinoline-1 (2H)-one] yielded an IC50 of 219 nM.
